Source: patent publication US9321776B2, “Isochromene derivatives as phoshoinositide 3-kinases inhibitors” (CHIESI FARMACEUTICI S.p.A., priority 2013, dated 2016)
Counter-ions that a name gives are not always drawn.

Legend:
Test in all cases: PI3K enzyme inhibitory activity in the cell free assay (ADP-Glo Kinase Assay)
Assay type in all cases: biochemical
[1] = biological target: T1, PI3Kδ (Homo sapiens, UniProt O00329); conditions: human recombinant PI3Kδ, ATP 80 μM; read-out: PI3K delta inhibition
T1 construct: purchased Millipore Ltd (Billerica, Mass.)
T1 sequence (O00329 1-1044): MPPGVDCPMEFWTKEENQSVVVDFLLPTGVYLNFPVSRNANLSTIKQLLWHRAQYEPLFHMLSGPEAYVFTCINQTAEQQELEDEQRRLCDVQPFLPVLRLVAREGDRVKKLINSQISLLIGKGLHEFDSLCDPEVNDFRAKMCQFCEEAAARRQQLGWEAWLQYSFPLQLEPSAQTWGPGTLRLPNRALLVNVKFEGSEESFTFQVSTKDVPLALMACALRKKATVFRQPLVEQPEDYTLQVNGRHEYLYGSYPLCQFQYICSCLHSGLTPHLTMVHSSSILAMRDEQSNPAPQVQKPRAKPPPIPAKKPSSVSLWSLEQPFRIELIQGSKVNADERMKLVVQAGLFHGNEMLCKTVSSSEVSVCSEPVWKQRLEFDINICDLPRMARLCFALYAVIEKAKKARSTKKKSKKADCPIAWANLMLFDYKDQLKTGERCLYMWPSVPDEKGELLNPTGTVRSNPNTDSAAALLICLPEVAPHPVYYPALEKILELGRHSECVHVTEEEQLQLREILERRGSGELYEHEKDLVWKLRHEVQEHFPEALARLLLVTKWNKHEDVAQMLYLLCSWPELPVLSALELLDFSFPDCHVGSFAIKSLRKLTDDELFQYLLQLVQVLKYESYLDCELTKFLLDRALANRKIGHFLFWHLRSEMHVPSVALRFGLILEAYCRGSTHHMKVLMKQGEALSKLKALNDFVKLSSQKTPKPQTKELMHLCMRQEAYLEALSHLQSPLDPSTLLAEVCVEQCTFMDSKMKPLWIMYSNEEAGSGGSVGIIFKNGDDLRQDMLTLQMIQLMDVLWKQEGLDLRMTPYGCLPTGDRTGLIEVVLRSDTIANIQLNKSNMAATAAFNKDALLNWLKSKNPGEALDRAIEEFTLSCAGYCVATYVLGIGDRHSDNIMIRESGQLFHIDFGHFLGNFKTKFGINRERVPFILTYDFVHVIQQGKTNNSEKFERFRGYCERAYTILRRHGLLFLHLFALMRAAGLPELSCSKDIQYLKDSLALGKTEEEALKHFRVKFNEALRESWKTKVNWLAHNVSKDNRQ

[2] = biological target: T2, PI3Kα (Homo sapiens, UniProt P42336); conditions: human recombinant PI3Kα, ATP 50 μM; read-out: PI3K alpha inhibition
T2 construct: purchased Millipore Ltd (Billerica, Mass.)

[3] = biological target: T3, PI3Kβ (Homo sapiens, UniProt P42338); conditions: human recombinant PI3Kβ, ATP 100 μM; read-out: PI3K beta inhibition
T3 construct: purchased Millipore Ltd (Billerica, Mass.)

[4] = biological target: T4, PI3Kγ (Homo sapiens, UniProt P48736); conditions: human recombinant PI3Kγ, ATP 30 μM; read-out: PI3K gamma inhibition
T4 construct: purchased Millipore Ltd (Billerica, Mass.)
T4 sequence (P48736 whole entry): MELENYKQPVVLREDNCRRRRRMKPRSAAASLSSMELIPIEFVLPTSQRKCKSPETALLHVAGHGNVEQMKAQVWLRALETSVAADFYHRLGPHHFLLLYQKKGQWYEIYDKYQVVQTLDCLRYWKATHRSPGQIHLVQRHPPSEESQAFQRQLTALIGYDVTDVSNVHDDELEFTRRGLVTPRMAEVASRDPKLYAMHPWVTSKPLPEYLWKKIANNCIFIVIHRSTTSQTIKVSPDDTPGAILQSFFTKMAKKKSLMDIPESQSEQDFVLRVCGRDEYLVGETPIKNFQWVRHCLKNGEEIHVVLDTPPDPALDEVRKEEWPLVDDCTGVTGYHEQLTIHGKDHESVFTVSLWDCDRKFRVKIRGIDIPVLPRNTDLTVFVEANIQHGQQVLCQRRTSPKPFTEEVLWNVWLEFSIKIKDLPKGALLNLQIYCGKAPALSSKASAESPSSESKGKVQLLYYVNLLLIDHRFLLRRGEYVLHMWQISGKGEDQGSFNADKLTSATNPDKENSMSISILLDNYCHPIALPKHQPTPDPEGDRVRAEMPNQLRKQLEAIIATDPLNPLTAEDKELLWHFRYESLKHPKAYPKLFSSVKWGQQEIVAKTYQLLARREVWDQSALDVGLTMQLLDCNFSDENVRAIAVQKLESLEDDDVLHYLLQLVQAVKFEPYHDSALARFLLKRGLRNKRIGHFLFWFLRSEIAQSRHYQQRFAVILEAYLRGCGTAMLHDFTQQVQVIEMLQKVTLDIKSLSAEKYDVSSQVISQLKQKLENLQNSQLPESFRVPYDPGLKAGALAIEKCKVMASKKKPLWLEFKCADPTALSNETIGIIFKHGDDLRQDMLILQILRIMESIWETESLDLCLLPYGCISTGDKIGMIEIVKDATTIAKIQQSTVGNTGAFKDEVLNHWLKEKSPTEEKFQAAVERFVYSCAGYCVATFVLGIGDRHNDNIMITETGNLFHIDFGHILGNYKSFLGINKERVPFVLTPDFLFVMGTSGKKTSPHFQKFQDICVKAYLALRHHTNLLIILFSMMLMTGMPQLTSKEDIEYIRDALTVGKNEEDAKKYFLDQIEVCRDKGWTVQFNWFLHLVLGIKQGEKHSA

T2 sequence (P42336 whole entry): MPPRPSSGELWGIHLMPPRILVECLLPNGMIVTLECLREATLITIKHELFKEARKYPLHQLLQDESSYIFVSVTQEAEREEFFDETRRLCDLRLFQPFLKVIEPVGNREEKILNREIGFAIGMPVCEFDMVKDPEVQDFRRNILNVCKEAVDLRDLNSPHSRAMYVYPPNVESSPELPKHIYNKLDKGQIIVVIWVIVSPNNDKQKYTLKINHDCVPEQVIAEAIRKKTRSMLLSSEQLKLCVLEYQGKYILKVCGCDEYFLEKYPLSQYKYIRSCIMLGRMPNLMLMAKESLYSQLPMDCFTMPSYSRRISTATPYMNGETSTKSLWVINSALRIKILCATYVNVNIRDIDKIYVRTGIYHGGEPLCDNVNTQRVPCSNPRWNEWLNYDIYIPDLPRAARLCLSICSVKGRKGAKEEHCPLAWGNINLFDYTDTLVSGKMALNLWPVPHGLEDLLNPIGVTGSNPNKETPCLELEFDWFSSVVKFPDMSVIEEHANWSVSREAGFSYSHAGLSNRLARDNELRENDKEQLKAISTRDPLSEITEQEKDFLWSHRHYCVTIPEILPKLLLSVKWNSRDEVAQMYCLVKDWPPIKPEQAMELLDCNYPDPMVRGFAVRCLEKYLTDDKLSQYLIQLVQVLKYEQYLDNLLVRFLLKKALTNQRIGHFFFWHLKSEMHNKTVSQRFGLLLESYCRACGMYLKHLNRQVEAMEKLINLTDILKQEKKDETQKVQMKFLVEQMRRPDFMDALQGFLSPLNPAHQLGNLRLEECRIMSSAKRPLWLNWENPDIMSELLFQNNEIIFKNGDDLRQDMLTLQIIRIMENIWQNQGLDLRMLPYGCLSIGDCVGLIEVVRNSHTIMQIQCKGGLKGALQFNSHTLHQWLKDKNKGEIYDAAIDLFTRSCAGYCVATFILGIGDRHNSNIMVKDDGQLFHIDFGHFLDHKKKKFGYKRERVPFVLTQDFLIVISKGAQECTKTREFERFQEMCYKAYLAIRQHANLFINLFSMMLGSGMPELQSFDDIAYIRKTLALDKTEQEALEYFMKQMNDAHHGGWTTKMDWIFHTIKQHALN
T3 sequence (P42338 whole entry): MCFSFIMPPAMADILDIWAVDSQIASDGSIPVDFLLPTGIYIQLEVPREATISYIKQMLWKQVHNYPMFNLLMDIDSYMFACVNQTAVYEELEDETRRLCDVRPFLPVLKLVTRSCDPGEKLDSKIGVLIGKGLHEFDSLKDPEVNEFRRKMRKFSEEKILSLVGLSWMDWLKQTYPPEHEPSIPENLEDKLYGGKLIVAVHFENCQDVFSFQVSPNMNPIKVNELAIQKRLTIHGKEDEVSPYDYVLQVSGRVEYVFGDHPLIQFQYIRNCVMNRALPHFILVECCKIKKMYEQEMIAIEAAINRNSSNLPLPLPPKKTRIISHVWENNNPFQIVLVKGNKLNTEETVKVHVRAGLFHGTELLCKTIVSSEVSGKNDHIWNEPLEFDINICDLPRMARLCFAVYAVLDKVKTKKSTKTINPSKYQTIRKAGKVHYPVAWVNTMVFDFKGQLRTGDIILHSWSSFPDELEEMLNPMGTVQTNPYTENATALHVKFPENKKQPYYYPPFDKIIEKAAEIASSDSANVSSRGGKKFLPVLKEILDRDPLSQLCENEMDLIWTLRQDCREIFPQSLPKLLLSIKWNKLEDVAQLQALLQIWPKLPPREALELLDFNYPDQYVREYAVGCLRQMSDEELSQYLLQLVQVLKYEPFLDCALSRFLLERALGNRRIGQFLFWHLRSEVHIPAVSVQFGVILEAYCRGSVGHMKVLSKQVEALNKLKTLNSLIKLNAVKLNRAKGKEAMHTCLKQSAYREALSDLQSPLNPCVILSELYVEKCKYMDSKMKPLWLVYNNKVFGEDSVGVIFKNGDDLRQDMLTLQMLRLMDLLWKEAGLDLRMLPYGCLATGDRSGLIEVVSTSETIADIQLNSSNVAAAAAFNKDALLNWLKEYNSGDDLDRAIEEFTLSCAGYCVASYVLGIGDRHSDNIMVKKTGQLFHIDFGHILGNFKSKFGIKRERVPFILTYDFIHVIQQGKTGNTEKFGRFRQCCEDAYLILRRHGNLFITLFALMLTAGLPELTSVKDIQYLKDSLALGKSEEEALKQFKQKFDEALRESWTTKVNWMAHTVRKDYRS

IC50 [1] [nM]	IC50 [2] [nM]	IC50 [3] [nM]	IC50 [4] [nM]	SMILES
< 10	> 1000	10 to 1000	> 1000	CC(c1oc(=O)c2ccccc2c1-c1ccc(CN2CCCC2)cc1)n1nc(-c2cc(O)cc(F)c2)c2c(N)ncnc21 (stereo not shown) [Example 140, 3-(1-(4-amino-3-(3-fluoro-5-hydroxyphenyl)-1H-pyrazolo[3,4-d]pyrimidin-1-yl)ethyl)-4-(4-(pyrrolidin-1-ylmethyl)phenyl)-1H-isochromen-1-one, hydrochloride]
< 10	10 to 1000	10 to 1000	10 to 1000	CC(=O)N1CC=C(c2c(C(C)n3nc(-c4cc(O)cc(F)c4)c4c(N)ncnc43)oc(=O)c3ccccc23)CC1 (stereo not shown) [Example 72, 4-(1-acetyl-1,2,3,6-tetrahydropyridin-4-yl)-3-(1-(4-amino-3-(3-fluoro-5-hydroxyphenyl)-1H-pyrazolo[3,4-d]pyrimidin-1-yl)ethyl)-1H-isochromen-1-one]
10 to 1000	10 to 1000	10 to 1000	> 1000	CC(c1oc(=O)c2ccccc2c1C1=CC2CCC(C1)N2C)n1nc(-c2cc(O)cc(F)c2)c2c(N)ncnc21 (stereo not shown) [Example 92, 3-(1-(4-amino-3-(3-fluoro-5-hydroxyphenyl)-1H-pyrazolo[3,4-d]pyrimidin-1-yl)ethyl)-4-(8-methyl-8-azabicyclo[3.2.1]oct-2-en-3-yl)-1H-isochromen-1-one hydrochloride]
< 10	> 1000	10 to 1000	10 to 1000	CC(c1oc(=O)c2ccccc2c1C1=CCCN(Cc2ccccc2)C1)n1nc(-c2cc(O)cc(F)c2)c2c(N)ncnc21 (single isomer, unassigned) [Example 169a, 3-(1-(4-amino-3-(3-fluoro-5-hydroxyphenyl)-1H-pyrazolo[3,4-d]pyrimidin-1-yl)ethyl)-4-(1-benzyl-1,2,5,6-tetrahydropyridin-3-yl)-1H-isochromen-1-one hydrochloride single enantiomers]
< 10	10 to 1000	10 to 1000	10 to 1000	CC(c1oc(=O)c2ccccc2c1-c1ccccc1)n1nc(-c2cnc(N)s2)c2c(N)ncnc21 (stereo not shown) [Example 59, 3-(1-(4-amino-3-(2-aminothiazol-5-yl)-1H-pyrazolo[3,4-d]pyrimidin-1-yl)ethyl)-4-phenyl-1H-isochromen-1-one hydrochloride]
< 10	10 to 1000	10 to 1000	10 to 1000	COc1ccc(-c2nn(C(C)c3oc(=O)c4ccccc4c3-c3ccccc3)c3ncnc(N)c23)cn1 (stereo not shown) [Example 60, 3-(1-(4-amino-3-(6-methoxypyridin-3-yl)-1H-pyrazolo[3,4-d]pyrimidin-1-yl)ethyl)-4-phenyl-1H-isochromen-1-one]
< 10	10 to 1000	10 to 1000	10 to 1000	CC(=O)N1CC=C(c2c(C(C)n3nc(-c4cncc(O)c4)c4c(N)ncnc43)oc(=O)c3ccccc23)CC1 (stereo not shown) [Example 71, 4-(1-acetyl-1,2,3,6-tetrahydropyridin-4-yl)-3-(1-(4-amino-3-(5-hydroxypyridin-3-yl)-1H-pyrazolo[3,4-d]pyrimidin-1-yl)ethyl)-1H-isochromen-1-one]
< 10	10 to 1000	10 to 1000	10 to 1000	CC(Nc1ncnc2[nH]cnc12)c1oc(=O)c2ccccc2c1-c1cn[nH]c1 (stereo not shown) [Example 122, 3-(1-(9H-purin-6-ylamino)ethyl)-4-(1H-pyrazol-4-yl)-1H-isochromen-1-one]
< 10	> 1000	10 to 1000	> 1000	CC(c1oc(=O)c2ccccc2c1C1=CCN(C)CC1)n1nc(-c2cc(O)cc(Cl)c2)c2c(N)ncnc21 (stereo not shown) [Example 154, 3-(1-(4-amino-3-(3-chloro-5-hydroxyphenyl)-1H-pyrazolo[3,4-d]pyrimidin-1-yl)ethyl)-4-(1-methyl-1,2,3,6-tetrahydropyridin-4-yl)-1H-isochromen-1-one formate]
< 10	10 to 1000	10 to 1000	10 to 1000	CC(c1oc(=O)c2ccccc2c1C1=CCN(Cc2ccncc2)CC1)n1nc(-c2cc(O)cc(F)c2)c2c(N)ncnc21 (stereo not shown) [Example 65, 3-(1-(4-amino-3-(3-fluoro-5-hydroxyphenyl)-1H-pyrazolo[3,4-d]pyrimidin-1-yl)ethyl)-4-(1-(pyridin-4-ylmethyl)-1,2,3,6-tetrahydropyridin-4-yl)-1H-isochromen-1-one hydrochloride]
< 10	10 to 1000	10 to 1000	10 to 1000	CC(c1oc(=O)c2ccccc2c1-c1ccc(CN2CCOCC2)s1)n1nc(-c2cc(O)cc(F)c2)c2c(N)ncnc21 (single isomer, unassigned) [Example 49a, 3-(1-(4-amino-3-(3-fluoro-5-hydroxyphenyl)-1H-pyrazolo[3,4-d]pyrimidin-1-yl)ethyl)-4-(5-(morpholinomethyl)thiophen-2-yl)-1H-isochromen-1-one hydrochloride]
< 10	> 1000	10 to 1000	10 to 1000	CC(c1oc(=O)c2ccccc2c1C1=CCCN(Cc2ccccc2)C1)n1nc(-c2cc(O)cc(F)c2)c2c(N)ncnc21 (stereo not shown) [Example 169, 3-(1-(4-amino-3-(3-fluoro-5-hydroxyphenyl)-1H-pyrazolo[3,4-d]pyrimidin-1-yl)ethyl)-4-(1-benzyl-1,2,5,6-tetrahydropyridin-3-yl)-1H-isochromen-1-one hydrochloride]
< 10	10 to 1000	10 to 1000	10 to 1000	CC(c1oc(=O)c2ccccc2c1CN1CCOCC1)n1nc(-c2cc(O)cc(F)c2)c2c(N)ncnc21 (stereo not shown) [Example 130, 3-(1-(4-amino-3-(3-fluoro-5-hydroxyphenyl)-1H-pyrazolo[3,4-d]pyrimidin-1-yl)ethyl)-4-(morpholinomethyl)-1H-isochromen-1-one]
< 10	10 to 1000	10 to 1000	10 to 1000	CC(c1oc(=O)c2ccccc2c1-c1ccc(CN2CCCCC2)s1)n1nc(-c2cc(O)cc(F)c2)c2c(N)ncnc21 (stereo not shown) [Example 68, 3-(1-(4-amino-3-(3-fluoro-5-hydroxyphenyl)-1H-pyrazolo[3,4-d]pyrimidin-1-yl)ethyl)-4-(5-(piperidin-1-ylmethyl)thiophen-2-yl)-1H-isochromen-1-one hydrochloride]
< 10	10 to 1000	10 to 1000	10 to 1000	CC(c1oc(=O)c2ccccc2c1-c1ccc(CN2CCCCC2)s1)n1nc(-c2cc(O)cc(F)c2)c2c(N)ncnc21 (single isomer, unassigned) [Example 68b, 3-(1-(4-amino-3-(3-fluoro-5-hydroxyphenyl)-1H-pyrazolo[3,4-d]pyrimidin-1-yl)ethyl)-4-(5-(piperidin-1-ylmethyl)thiophen-2-yl)-1H-isochromen-1-one hydrochloride single enantiomers]
10 to 1000	10 to 1000	10 to 1000	10 to 1000	CC(c1oc(=O)c2ccccc2c1C1=CCCN(C2CCN(C)CC2)C1)n1nc(-c2cc(O)cc(F)c2)c2c(N)ncnc21 (stereo not shown) [Example 172, 3-(1-(4-amino-3-(3-fluoro-5-hydroxyphenyl)-1H-pyrazolo[3,4-d]pyrimidin-1-yl)ethyl)-4-(1-(1-methylpiperidin-4-yl)-1,2,5,6-tetrahydropyridin-3-yl)-1H-isochromen-1-one dihydrochloride]
